According to article PMC10313921, “A living ex vivo platform for functional, personalized brain cancer diagnosis” (Cell Reports Medicine, 2023):

How the values were obtained:
Assay type in all cases: cell-based, human
[1] = system: MB231Br (breast cancer metastasis to brain); assay: Drug screening of MB231Br tumor foci on OBSCs; settings: MB231BR on OBSCs
[2] = system: LN229 (established GBM line); assay: Drug screening of LN229 tumor foci on OBSCs
Procedure: (§1) Tumor cells (0.17 μL, 25,000 cells) were seeded onto OBSCs 2h after slicing, with one tumor seeded in the center of each hemisphere for a total of two tumor foci per OBSC. BSM was changed 24h after slicing. Fluorescence images were taken 0 h, 24 h, and 96 h post-seeding for normalization of tumor size. Bioluminescence readouts were also taken at 0 h, 24 h, and 96 h post seeding for assessment of cell viability. Luciferin was added underneath the culture insert and allowed to incubate for 10 min before bioluminescence measurement on an AMI optical imaging system.
(§2) Tumor cells were seeded onto OBSCs 2h after slicing as described above. One day after tumor seeding, six concentrations of each drug were diluted in the media underneath each culture insert, or XRad was applied using an X-Rad 320 Precision X-ray machine (n = 4 tumor foci per concentration; n ≥ 24 tumor foci per drug per cell line). Three days after treatment, the bioluminescence of live tumor cells was measured using an AMI optical imager (Spectral Instruments) and dose-response curves were generated. Tumor survival was normalized to day one tumor fluorescence and compared to an untreated control group.
(§3) Several weighted parameters were factored into an overall drug sensitivity score.
(§4) For DSS parameters 1–6, therapeutic windows were calculated by comparing OBSC toxicity and tumor response at the doses where tumor kill passed through the DSS parameter (Table S1 and S3). For DSS parameter 7, the therapeutic window was calculated by comparing the slopes through the tumor EC50 and the OBSC tox EC50. For DSS parameter 8, the therapeutic window was calculated by comparing the areas under tumor kill and OBSC tox curves. Normalized therapeutic window ratios for DSS parameters 1–8 within each drug-tumor-OBSC interaction were calculated in the following manner: within each window, values ranged from +1 to −1, where values approaching +1 signify increasing tumor kill relative to normal tissue toxicity, and values approaching −1 indicate agents where tumors remained highly viable while toxicity to the normal OBSC tissue was elevated. DSS parameters 9–11 were determined based on the behavior of the tumor in response to the drug, as defined above.
(§5) All individually weighed parameters were added together to generate the DSS. Overall DSS from 0 to 100 signify increasing efficacy in tumor kill relative to OBSC toxicity, while scores from 0 to −100 describe scenarios in which tumors thrive more effectively than OBSCs for a given treatment. Dose-response values were calculated via linear interpolation of raw data, not from best-fit curve equations.

[3] = system: U373WT (wild-type established GBM line); assay: Drug screening of U373WT tumor foci on OBSCs
Procedure: as §1, §2, §3, §4, §5

[4] = system: U373KO (RAD18 knockout of U373WT via CRISPR); assay: Drug screening of U373KO tumor foci on OBSCs; settings: U373 KO on OBSCs
Procedure: as §1, §2, §3, §4, §5

[5] = system: GBM8 (high-passage patient-derived GBM line); assay: Drug screening of GBM8 tumor foci on OBSCs; settings: GBM8 on OBSCs
Procedure: as §1, §2, §3, §4, §5

[6] = system: MS21 (low-passage patient-derived GBM line); assay: Drug screening of MS21 tumor foci on OBSCs; settings: MS21 on OBSCs
Procedure: as §1, §2, §3, §4, §5

[7] = system: PDIPG (low-passage pediatric patient-derived line); assay: Drug screening of PDIPG tumor foci on OBSCs; settings: PDIPG on OBSCs
Procedure: as §1, §2, §3, §4, §5

[8] = system: 7 cell lines (MB231Br, LN229, U373WT, U373KO, GBM8, MS21, PDIPG); assay: Drug screening on OBSCs, summary over the panel of seven tumor lines; settings: number of lines responding
Procedure: as §1, §2, §3, §4, §5

[9] = area under the dose-response curve, trapezoidal rule
[10] = dose required to kill 10% of the tumor
[11] = dose required to kill 25% of the tumor
[12] = dose required to kill 50% of the tumor
[13] = dose required to kill 75% of the tumor
[14] = dose required to kill 90% of the tumor
[15] = dose required to kill 50% of the tumor, read-out: EC50
[16] = dose required to kill 90% of the tumor, read-out: EC90

## N.N.[Cl][Pt][Cl] [Cisplatin]
[1]
  Killing at highest dose: 1.00E+00 fraction of tumor population killed
[1]; [9]
  AUC: 6.20E+01
[1]; [10]
  EC10: 74.1 µM
[1]; [11]
  EC25: 87.1 µM
[1]; [12]
  EC50: 125 µM
[1]; [13]
  EC75: 188 µM
[1]; [14]
  EC90: 225 µM
[1]; slope through the EC50
  Slope: -4.00E-03
[2]
  Killing at highest dose: 1.00E+00 fraction of tumor population killed
[2]; [9]
  AUC: 7.69E+01
[2]; [10]
  EC10: 74.6 µM
[2]; [11]
  EC25: 81.3 µM
[2]; [12]
  EC50: 92.4 µM
[2]; [13]
  EC75: 136 µM
[2]; [14]
  EC90: 205 µM
[2]; slope through the EC50
  Slope: -2.20E-03
[3]; U373 WT on OBSCs
  Killing at highest dose: 1.00E+00 fraction of tumor population killed
[3]; U373 WT on OBSCs, area under the dose-response curve, trapezoidal rule
  AUC: 1.33E+01
[3]; U373 WT on OBSCs, dose required to kill 10% of the tumor
  EC10: 20.3 µM
[3]; U373 WT on OBSCs, dose required to kill 25% of the tumor
  EC25: 28.4 µM
[3]; U373 WT on OBSCs, dose required to kill 50% of the tumor
  EC50: 41.9 µM
[3]; U373 WT on OBSCs, dose required to kill 75% of the tumor
  EC75: 65.2 µM
[3]; U373 WT on OBSCs, dose required to kill 90% of the tumor
  EC90: 87.9 µM
[3]; U373 WT on OBSCs, slope through the EC50
  Slope: -1.85E-02
[3]; U373 WT, scale -100 to +100, tumor kill relative to OBSC toxicity
  DSS (drug sensitivity score): 62
[4]
  Killing at highest dose: 1.00E+00 fraction of tumor population killed
[4]; [9]
  AUC: 1.56E+01
[4]; [10]
  EC10: 33.2 µM
[4]; [11]
  EC25: 36.5 µM
[4]; [12]
  EC50: 42 µM
[4]; [13]
  EC75: 47.6 µM
[4]; [14]
  EC90: 114 µM
[4]; slope through the EC50
  Slope: -4.53E-02
[5]
  Killing at highest dose: 1.00E+00 fraction of tumor population killed
[5]; [9]
  AUC: 1.76E-01
[5]; [10]
  EC10: 0.0906 µM
[5]; [11]
  EC25: 0.226 µM
[5]; [15]
  EC50: 453 nM
[5]; [13]
  EC75: 2.74 µM
[5]; [16]
  EC90: 4.2 µM
[5]; slope through the EC50
  Slope: -1.10E+00
[6]
  Killing at highest dose: 9.99E-01 fraction of tumor population killed
[6]; [9]
  AUC: 4.20E+00
[6]; [10]
  EC10: 4.55 µM
[6]; [11]
  EC25: 11.6 µM
[6]; [15]
  EC50: 24.7 µM
[6]; [13]
  EC75: 37.9 µM
[6]; [16]
  EC90: 45.7 µM
[6]; slope through the EC50
  Slope: -1.90E-02
[7]
  Killing at highest dose: 1.00E+00 fraction of tumor population killed
[7]; [9]
  AUC: 4.87E+00
[7]; [10]
  EC10: 3.17 µM
[7]; [11]
  EC25: 7.94 µM
[7]; [15]
  EC50: 16.8 µM
[7]; [13]
  EC75: 27.3 µM
[7]; [16]
  EC90: 41.5 µM
[7]; slope through the EC50
  Slope: -2.73E-02
[8]
  response / killing over the 7 cell lines: robust response
